We go through three compounds from ChEMBL document CHEMBL4813980, “A novel class of selective non-nucleoside inhibitors of human DNA methyltransferase 3A” (Bioorg Med Chem Lett, 2021).

Active and inactive are the calls of the source. No cut-off for these calls is given here.

The target of test [1] is T1, DNA (cytosine-5)-methyltransferase 3A (Homo sapiens, UniProt Q9Y6K1). Nature of the test: Binding affinity to human DNMT3A catalytic domain assessed as inhibition of enzyme-mediated DNA methylation using 3H-AdoMet as substrate incubated for 30 mins.
The target of test [2] is T1, DNA (cytosine-5)-methyltransferase 3A. Nature of the test: Binding affinity to human DNMT3A catalytic domain assessed as inhibition of enzyme-mediated DNA methylation using poly dl-dC as substrate incubated for 30 mins.
The nature of test [3]: Inhibition of bacterial DNA cytosine methyltransferase M.SssI up to 60 uM preincubated for 15 mins followed by DNA addition measured after 30 mins relative to control. Conditions: dose microM <=60, time 15.0 min.
The target in test [4] is DNA (cytosine-5)-methyltransferase 1 (Homo sapiens) (UniProt P26358). Nature of the test: Inhibition of DNMT1 (unknown origin) up to 6 uM preincubated for 15 mins followed by DNA addition measured after 30 mins relative to control. Conditions: dose microM <=6, time 15.0 min.
For test [5], the target named is T1, DNA (cytosine-5)-methyltransferase 3A. The test is described as follows: Inhibition of human DNMT3A (628 to 912 residues) preincubated for 15 mins followed by DNA addition measured after 30 mins relative to control.
Test [6] has the same target. Nature of the test: Uncompetitive inhibition of human DNMT3A using AdoMet as substrate.
Test [7] shares this target. Nature of the test: Uncompetitive inhibition of human DNMT3A using poly dl-dC as substrate.
Test [8] shares this target. The test is described as follows: Mixed type inhibition of human DNMT3A using AdoMet as substrate.
Test [9] shares this target. The test is described as follows: Mixed type inhibition of human DNMT3A using poly dl-dC as substrate.

T1 sequence (Q9Y6K1 whole entry, looked up, the tested form may be a part): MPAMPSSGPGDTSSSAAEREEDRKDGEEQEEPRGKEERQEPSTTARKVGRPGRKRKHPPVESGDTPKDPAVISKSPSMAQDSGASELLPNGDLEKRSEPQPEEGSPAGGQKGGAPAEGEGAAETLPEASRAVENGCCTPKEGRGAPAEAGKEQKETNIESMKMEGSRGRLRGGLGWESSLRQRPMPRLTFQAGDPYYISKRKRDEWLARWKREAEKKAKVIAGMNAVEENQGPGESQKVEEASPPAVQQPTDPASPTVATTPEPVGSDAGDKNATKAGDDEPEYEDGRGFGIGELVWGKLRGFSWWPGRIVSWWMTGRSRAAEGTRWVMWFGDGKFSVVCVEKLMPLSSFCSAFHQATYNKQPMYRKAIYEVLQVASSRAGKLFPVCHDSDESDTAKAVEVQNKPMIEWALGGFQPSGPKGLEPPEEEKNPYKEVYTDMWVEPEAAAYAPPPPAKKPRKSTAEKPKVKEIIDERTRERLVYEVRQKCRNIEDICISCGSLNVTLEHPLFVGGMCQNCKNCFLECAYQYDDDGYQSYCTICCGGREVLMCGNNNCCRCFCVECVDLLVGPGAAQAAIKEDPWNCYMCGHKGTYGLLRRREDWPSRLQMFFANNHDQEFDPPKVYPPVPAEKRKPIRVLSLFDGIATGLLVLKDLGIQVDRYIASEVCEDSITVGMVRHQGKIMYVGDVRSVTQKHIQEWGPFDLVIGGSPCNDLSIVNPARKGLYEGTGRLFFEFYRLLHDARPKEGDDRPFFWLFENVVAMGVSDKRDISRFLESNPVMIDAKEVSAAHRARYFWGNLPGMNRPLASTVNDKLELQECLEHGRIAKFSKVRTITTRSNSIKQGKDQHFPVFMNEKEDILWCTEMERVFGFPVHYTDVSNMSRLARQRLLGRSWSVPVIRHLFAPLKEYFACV
Chain of DNA (cytosine-5)-methyltransferase 1 (Homo sapiens) (P26358 whole entry, the tested form may be a part): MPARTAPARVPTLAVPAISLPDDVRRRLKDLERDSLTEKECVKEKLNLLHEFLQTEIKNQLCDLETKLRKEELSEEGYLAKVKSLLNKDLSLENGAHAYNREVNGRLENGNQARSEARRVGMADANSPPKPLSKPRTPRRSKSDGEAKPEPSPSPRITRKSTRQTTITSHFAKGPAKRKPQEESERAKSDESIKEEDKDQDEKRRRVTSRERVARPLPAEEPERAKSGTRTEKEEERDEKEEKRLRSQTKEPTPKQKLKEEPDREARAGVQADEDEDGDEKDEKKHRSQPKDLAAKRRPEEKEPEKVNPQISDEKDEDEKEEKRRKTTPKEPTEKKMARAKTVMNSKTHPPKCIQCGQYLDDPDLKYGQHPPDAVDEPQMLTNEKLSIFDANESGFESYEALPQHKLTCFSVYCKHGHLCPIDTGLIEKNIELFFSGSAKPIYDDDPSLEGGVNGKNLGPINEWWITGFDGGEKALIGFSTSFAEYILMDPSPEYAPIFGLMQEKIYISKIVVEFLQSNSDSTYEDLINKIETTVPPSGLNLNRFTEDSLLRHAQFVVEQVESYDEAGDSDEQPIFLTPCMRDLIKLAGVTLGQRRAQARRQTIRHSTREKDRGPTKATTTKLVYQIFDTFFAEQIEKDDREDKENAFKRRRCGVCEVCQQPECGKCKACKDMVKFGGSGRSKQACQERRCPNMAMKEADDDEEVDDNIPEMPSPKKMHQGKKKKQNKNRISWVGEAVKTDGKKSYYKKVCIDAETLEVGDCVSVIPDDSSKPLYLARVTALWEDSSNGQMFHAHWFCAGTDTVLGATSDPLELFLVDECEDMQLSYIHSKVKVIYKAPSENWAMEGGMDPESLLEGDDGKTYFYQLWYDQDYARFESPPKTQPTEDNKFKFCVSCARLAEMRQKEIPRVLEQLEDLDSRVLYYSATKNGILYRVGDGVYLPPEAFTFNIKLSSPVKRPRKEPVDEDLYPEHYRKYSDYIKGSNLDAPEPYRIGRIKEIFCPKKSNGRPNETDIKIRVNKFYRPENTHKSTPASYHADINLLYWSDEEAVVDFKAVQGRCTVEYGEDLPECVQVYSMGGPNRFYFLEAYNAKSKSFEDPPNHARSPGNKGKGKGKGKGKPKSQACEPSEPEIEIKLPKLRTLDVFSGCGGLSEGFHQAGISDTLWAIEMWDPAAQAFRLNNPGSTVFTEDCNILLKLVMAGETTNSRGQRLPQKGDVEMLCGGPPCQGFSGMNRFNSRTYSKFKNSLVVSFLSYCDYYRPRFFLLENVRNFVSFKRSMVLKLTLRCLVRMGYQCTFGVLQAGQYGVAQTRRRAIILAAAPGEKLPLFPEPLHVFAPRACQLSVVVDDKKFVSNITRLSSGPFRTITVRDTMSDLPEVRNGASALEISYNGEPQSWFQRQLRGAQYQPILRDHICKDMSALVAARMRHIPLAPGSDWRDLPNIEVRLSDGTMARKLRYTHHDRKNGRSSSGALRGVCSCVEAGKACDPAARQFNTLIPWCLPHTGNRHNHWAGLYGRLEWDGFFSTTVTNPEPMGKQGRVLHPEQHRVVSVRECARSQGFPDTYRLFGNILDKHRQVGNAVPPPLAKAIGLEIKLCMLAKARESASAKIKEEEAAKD

In general, Ki refers to the equilibrium dissociation constant of an inhibitor or competing ligand from its target. For `COc1ccc(C2=NN(C3CCCCCC3)C(=O)[C@@H]3CC=CC[C@H]23)cc1OCCCCOc1ccc(-c2nnn[nH]2)cc1`, the inhibition constant (Ki) is 13.8 µM in test [1], 16.1 µM in test [2], 9.16 µM in test [6] and 11.4 µM in test [7]. Also, in [3], the inhibition entry is “inactive”. The inhibition result in [4] and in test [5] was “Active” in each case.

In the case of `COc1ccc(C2=NN(C3CCCCCC3)C(=O)C2(C)C)cc1OCCCCOc1ccc(-c2nn[nH]n2)cc1`, in test [3], the inhibition result is “inactive”. The inhibition entry in [4] and in [5] was “Active” in each case.

For `COc1ccc(C2=NN(C3CCCCCC3)C(=O)C2(C)C)cc1OCCCCOc1ccc(-c2nnn[nH]2)cc1`, the Ki in test [1] was 5.03 µM; in test [2], 21.6 µM; in test [8] it was 3.7 µM; in test [9], 12.6 µM.
